The source of these data is paper PMC9714824, “Hexapeptides from mammalian inhibitory hormone hunt activate and inactivate nematode reproduction” (PLOS ONE, 2022).

Experiment [1] relates to human dental pulp cells. Conditions: 5μM (single starting dose) in the cell medium; over 7 days; cited from earlier work. The text has this: EPL001 is a found sequence, as described in the Introduction. As a 14mer synthetic peptide it has been represented elsewhere as a minimized ball and stick model in silico [9]. […] An anti-EPL001 antibody administered alone potentiated compensatory renal grow ...

Experiment [2] deals with MCF 7 human breast cancer cells. Conditions: in words; EPL120 over 72h, dose range 0.04 nM– 4 μM; cited from earlier work.
In experiment [3] the test system is rat bone marrow cells. Nature of the experiment: Bone marrow cell assay, time-lapse cell counts over 24h. In kind it is cell-based. Conditions: EPL001, EPL030 at 6μM, EPL120 at 5μM final concentration, in words (Fig 6). Here is the method:
The method has been described previously at length. Bone marrow cells, consisting of various cell types including mesenchymal stem cells and fibroblasts, were cultured from adult male rats (Rattus norvegicus, SD strain). These cells were passaged from a growing primary stock in a T75 tissue culture flask (Sarstedt) into a 48 well tissue culture plate (IWAKI), with a cell density of 1 x 10^5/ml. The cell culture media, henceforth referred to as ‘supplemented a-MEMS,’ comprised α-MEMS media supplemented with 10% FCS and 1% penicillin/streptomycin (all Life Technologies, Carlsbad, CA, US). On the day of peptide addition to the cells, the supplemented α-MEMS was gently removed and fresh supplemented α-MEMS added, with 10% test material by volume to achieve micromolar concentrations, untreated controls receiving just fresh supplemented α-MEMS. (For dose levels see legends in respective result figures) All samples were filter sterilised using a Millex-GV […] syringe filter unit (Merck, Kenilworth, NJ, USA). The cells were imaged for 24 h using an incubated Zeiss Axiovert 135M microscope with a Prior Proscan II motorised stage, at 37 °C with a 5% CO2 in air feed. Each well of the 48-well tissue culture plate was then imaged for 24h every 5 min using Metamorph software (MDS Analytical Technologies, Wokingham, UK), with each well having four fields of view. The viability and cell numbers were reviewed by analysing the images captured over the 24h period and cell counts were taken at selected time points using the Metamorph software.
Fig 6 Bone marrow cells in culture exposed to long peptides. Cells were counted over 24h after exposure to the 14mer peptide EPL001 or its scrambled-sequence control EPL030 at 6μM final concentration or to the 20mer EPL120 at 5μM final concentration, compared to peptide-untreated controls.
Fig 7 Bone marrow cells in culture exposed to hexapeptides. Cells were counted over 24h after exposure to either EPL016 (= MKPLTG, the ‘Front 6’ of the 14mer EPL001) or EPL036 (= IEPVFT, the ‘Back 6’ of EPL030, the scrambled-sequence control of EPL001) at 1μM final concentration, compared to peptide-untreated controls.

Experiment [4] has as its system LNCaP cells. Description: MTS viable cell assay, LNCaP (Epistem). Conditions: over 72h, single dose level. The format is cell-based, human. Here is the method: (§1) Further assays on human prostate cancer cells were conducted at a contract research organisation (Epistem, Manchester, UK). LNCaP or DU145 cells seeded at 3,000 cells/well across a 96-well plate were cultured in RPMI (phenol red free), 10% FCS, 1% sodium pyruvate, Pen/strep and L-glutamine for 24h before exposure to peptides, at a single dose level in the case of LNCaPs or multiple dose levels in the case of DU145s. (For dose levels see Results.) Controls received vehicle (1% PBS). For the DU145s peptide administration was repeated after 24h. 72h after the first administration (DU145s) or only administration (LNCaP) total viable cell numbers were measured colorimetrically (MTS) using a CellTiter 96 AQueous One Solution Cell Proliferation Assay (Promega, Southampton, UK), following manufacturer’s instructions. Briefly, the media on the plates was replaced with the CellTiter reagent diluted 1:5 in DMEM. The plates were returned to the incubator for 3 hours before reading absorbance at 492 nm on a FLUORstar OPTIMA (BMG Labtech). CellTiter data are the absorbance minus background values (CellTiter plus DMEM), expressed as (OD mean +/− SEM). Statistical analysis was by ANOVA, Dunnett’s multiple comparisons test.
(In general: Tetrazolium assays rely on reduction of a dye to a coloured formazan, in cell work by metabolically active cells.)

Experiment [5] has as its system human marrow derived mesenchymal stem cells (hMSCs). Nature of the experiment: Peptide immobilisation studies, hMSC proliferation (CyQuant) and FACS. The format is cell-based. Conditions: alanine substitution study; for Mean cell number: N-terminally tethered, seeding 5,000 cells per well, CyQuant, mean +/− SEM, n = 3. The text has this: Could the antiproliferative activity in vitro of EPL001 in solution be more predictably evoked and investigated more readily if the peptide is instead tethered to the cell culture’s substratum? […] In the first study EPL001 was immobilised by either its N terminus or C terminus and human stem cells exposed accordingly. This followed a confirmation of dissolved EPL001’s antiproliferative activity in the same laboratory (JAH). In the second study, aa sections of EPL001 were substituted with alanine strings prior to tethering, to define a functional biological motif. Into the base of each well of a 24-well plate was inserted a glass coverslip (13mm diameter, borosilicate glass, SLS, Nottingham, UK), upon the upper surface of which had been immobilised an individual peptide using a bioconjugate technique. During preparation of the coverslips, the surfaces were modified with carboxyl (−COOH) or amine (−NH2) groups separately using a published method. The carboxyl on the coverslips or at the end of the peptide sequence were reacted with NHS in the presence of EDC, resulting in a semi-stable NHS ester, which could then be reacted with primary amines (−NH2) on the coverslips or at the end of the peptide sequences to form amide crosslinks. For the carboxyl modified coverslips, the final peptide grafted on to the surface via its NH2 terminus was in the form Glass-CO-NH-Peptide. For the amine modified coverslips, the final peptide grafted on to the surface via its COOH terminus was in the form Glass-NH-CO-Peptide. The concentration of the peptides across the glass was approximately […]. Uncoated glass was used as the reference control. Treatments were in triplicate (i.e. n = 3). The cells used were human marrow derived mesenchymal stem cells (hMSCs, Lonza, Slough, UK, cat No PT-2507). In the EPL001-terminus study they were seeded at 10,000 cells per well; in the alanine substitution study the density was 5,000 cells per well. The cells were maintained in DMEM with 10% FSC. EPL001 and three alanine-substituted versions of it were deployed separately: MKPLTGKVKEFNNI (EPL001), AAAAAGKVKEFNNI (EPL590), MKPLTAAAAEFNNI (EPL545) and MKPLTGKVKEAAAA (EPL104). The peptides in the alanine substitution study were N-terminally tethered to the substrate. Cell numbers were measured by CyQuant® (Invitrogen, Paisley, UK). […] Statistical analysis was by ANOVA using SPSS software.
Four 14-aa peptides were synthesised: MKPLTGKVKEFNNI (EPL001), AAAAAGKVKEFNNI (EPL590), MKPLTAAAAEFNNI (EPL545) and MKPLTGKVKEAAAA (EPL104). The peptides were generated from l-isomer amino acids by solid phase peptide synthesis (Model 9050, Milligen). All peptides were N-terminally tethered to the substrate by a bioconjugate technique. MSCs were derived from human bone marrow and maintained in DMEM with 10% FSC. Cells were seeded on peptide treated surfaces including a glass control in a 24-well plate with cell density 5 x 10^3. The growth inhibitory activity was examined via cell proliferation assays and cell cycle analysis, using PI and Ki-67 staining. The cell phenotype and viability (7-AAD) were analysed by flow cytometry.

In experiment [6] the test system is mouse renal cell. Conditions: in words; cited from earlier work.
Experiment [7] concerns DU145 cells. Description: MTS viable cell assay, DU145 (Epistem). The format is cell-based, human. Conditions: DU145, 72h. The procedure:
as §1

For experiment [8], the system named is PC3 cells. Nature of the experiment: MTS colorimetric viable cell assay, PC3. Conditions: PC3; 30 μM; 27h; MTS, 492 nm; triplicate. The format is cell-based, human. Here is the method: (§2) Assays involving a range of peptides from 14mer down to 6mers assessed total viable PC3 or PNT2 cells using a 96-well plate MTS colorimetric assay (CellTiter 96 Aqueous One Solution Cell Proliferation Assay, Promega, Southampton, UK), with absorbance measured at 492 nm. Cells were seeded at 8,000 per well and grown for 27h. Peptides were administered at the outset to a final concentration of 30 μM (in 2 μl) to samples in triplicate. (A higher dosage was used than in the 14mer peptides study to shorten the timecourse of response.) Controls received buffer. Data are OD mean +/ − SEM, with statistical analysis by two tailed t-test. A time course study of the 14mers on PC3s, using the same technique, involved measurements at 24h and 48h.
(§3) Fig 5 Effects of a range of peptides on human prostate cancer cell growth in vitro. Assays involved a range of peptides from 14mers down to 6mers (Table 1), with viable cells assessed using a 96-well plate MTS colorimetric assay. Absorbance measured at 492 nm. Cells were seeded at 8,000 per well and grown for 27h. Peptides were administered at the outset to a final concentration of 30 μM (in 2 μl) to samples in triplicate. Controls received buffer. Data are OD mean +/- SEM, with statistical analysis by two tailed t-test. * p<0.05; **p<0.025.

The subject of experiment [9] is PNT2 cells. Description: MTS colorimetric viable cell assay, PNT2. In kind it is cell-based, human. Conditions: 30 μM, 27h, 492 nm, triplicate. The procedure: as §2, §3

For the substance “KVKEFNNI [EPL018, KVKEFNNI, EPL001 Back 8]”, the “Reduction in cell numbers” value in experiment [1] is on record as ~ 17%.

As to “EPL120: EPL001 Edman sequence tentatively extended 6 further reads, to make a 20mer (MKPLTGKVKEFNNIKGFGVI)”, the “Inhibition of IGF-1 stimulated growth in MCF-7 cell numbers” value in [2] is on record as “dose-dependent inhibition”. Also, the “Effect on bone marrow cells in culture” value in experiment [3] is “pro-apoptotic”.

As to “AAAAAGKVKEFNNI [EPL590, Substituted EPL001; alanines 1–5]”, the “Reduction in test mean OD versus the vehicle control mean” value in [4] is recorded as −21.4%. Besides, the “Cell number vs Glass” value in experiment [5] (Day 7) is 16%; in experiment [5] (Day 14) it was −23%. Moreover, the figures for the Mean cell number in experiment [5] (Day 7) and in experiment [5] (Day 14) were 11,805 +/−4,028 and 20,347 +/−2,264, respectively.

On to “KGNEVMKLFPTINE [EPL010, Scrambled control (Haylor et al, 2009)]”, for which the “Activity in a mouse renal cell assay in vitro” value in experiment [6] was “inactive”.

Turning to MKPVFN [EPL601], the “Reduction in test mean OD versus the vehicle control mean” value in [4] is listed as −16.0%. Moreover, the “Test mean OD vs control mean” value is recorded as “+6.9%” in [7] (0.015 μM); −4.3% in experiment [7] (0.15 μM); −10.4% in experiment [7] (1.5 μM); −11.4% in experiment [7] (15 μM); −14.3% in [7] (150 μM (highest concentration)). Further, the “Difference in percentage terms between control and test OD means” value in experiment [8] was −28.0%; in [9], −33.2%.

Take MKPNFN [EPL600]: the “Reduction in test mean OD versus the vehicle control mean” value in [4] is recorded as −35.1%. The “Test mean OD vs control mean” value in [7] (0.015 μM) is reported as “+8.6%”; in experiment [7] (0.15 μM), −0.1%; in [7] (1.5 μM) it was −8.4%; in experiment [7] (15 μM) it was −7.1%; in experiment [7] (150 μM (highest concentration)) it was −16.9%. Also, the “Difference in percentage terms between control and test OD means” value in [8] is −27.3%; in experiment [9], −39.7%.
